In US12133900B2, “Synthesis and composition of amino acid linking groups conjugated to compounds used for the targeted imaging of tumors” (Purdue Research Foundation, priority 2013, dated 2024):
“Also recorded” adds a separate entry of the source.

What was measured:
[1] = target: T1, folate receptor (FR-α) on KB cells (Homo sapiens, UniProt P15328); assay: Competition binding with [3H]-folic acid on KB cells; settings: for Kd: 10 nM [3H]-folic acid, 1 h at 37 °C, read-out: dissociation constants (KD); for Kd / affinity and specificity for folate receptor (words): KB cells; for Relative binding affinities: relative affinity of folic acid=1, <1 weaker
T1 construct: KB cells that overexpress FR-α were seeded in 24-well (100,000 cells/well) Falcon plates; host or cells: KB cells (human; described as a HeLa derivative)
Experimental: KB cells that overexpress FR-α were seeded in 24-well (100,000 cells/well) Falcon plates and allowed to form monolayers over a period of 24 h. […] After incubating for 1 hour at 37° C., cells were rinsed with PBS (2×0.5 mL) and 1M trichloroacetic acid (1×0.5 mL) to remove any unbound radioactive materials. After adding 1% sodium dodecylsulfate in PBS (0.5 mL), cells were transferred into individual scintillation vials containing Ecolume scintillation cocktail (3.0 mL) and counted in a liquid scintillation analyzer. The relative binding affinities were calculated using a plot of cell bound radioactivity versus the concentration of the test article using Graph Pad Prism 4.
(§1) KB cells that overexpress FR-α were seeded in 24-well (100,000 cells/well) Falcon plates (BD Biosciences, CA) and allowed to form monolayers over a period of 12 h. […] After incubating for 1 h at 37° C., cells were rinsed with PBS (3×0.5 mL, Gibco, NY) to remove any unbound radioactive materials. After adding 0.25 M sodium hydroxide (0.5 mL) and incubating for 12 h at 4° C., cells were transferred into individual scintillation vials containing Ecolite scintillation cocktail (3.0 mL, MP Biomedicals, OH) and counted in a liquid scintillation analyzer (Packard). The relative binding affinities were calculated using a plot of % cell bound radioactivity versus the log concentration of the test article using GraphPad Prism 4.
as §1, with “12 hours.” for “12 h.”, “1 hour” for “1 h”, “12 hours” for “12 h”

[2] = Toxicity in healthy nude mice; type: in vivo
Experimental: Seven-week-old healthy female nude mice (5 mice/group) were administered with 1 μmol of freshly prepared OTL-0038 or OTL-0039 dissolved in 100 μL of phosphate buffered saline via tail vein injection on day zero. Body weights and clinical observations were monitored prior to dosing and daily thereafter from day zero to 7. Any animals with a body weight loss of 20% or more over two consecutive days would be euthanized, but this was not necessary. The animals were euthanized by CO2 asphyxiation on day 7 and selected tissues (brain, heart, lung, liver, spleen, kidney, stomach, small intestine, large intestine, muscle, skin) were collected into vials containing 4% formalin. Formalin fixed tissues were sectioned into 10 μm thick sections and mounted onto Superfrost Plus™ slides (Fisher Scientific, Pittsburgh Pa.). After staining the slides with H&E, immunohistochemistry (IHC) analysis of the tissues was conducted to determine to the toxicity of OTL-0038 and OTL-0039.

[3] = tested on: folate receptor positive KB tumor xenografts; assay: Whole body imaging and tissue biodistribution, KB tumor xenografts; type: in vivo, mice; settings: for whole body imaging: accumulation / tumor fluorescence intensity, direct comparison: 10 nmol i.v.; for whole body imaging: accumulation / tumor fluorescence intensity, direct comparison / tumor fluorescence: 2 h; for tumor fluorescence: 10 nmol
Experimental: (§2) Seven-week-old female nu/nu mice were inoculated subcutaneously with KB cells (1.0×10^6/mouse in folate free RPM11640 medium) on the shoulder. […] […] Whole body imaging (intact tumor) experiments were then performed using a Caliper IVIS Lumina II Imaging Station with Living Image 4.0 software (PerkinElmer Inc, MA). Settings for imaging:—lamp level: medium; excitation: 745 nm; emission: 830 nm; epi illumination; binning: 4 (M), FOV=12.5; f-stop=2; acquisition time=1 s.
(§3) Following whole body imaging, animals were dissected and selected tissues (heart, lung, liver, spleen, kidneys, stomach, small intestine, large intestine, muscle, skin, tumor) were analyzed for fluorescence activity using IVIS imager as before. Settings for imaging: lamp level: medium; excitation: 745 nm; emission: 830 nm; epi illumination; binning: 4 (M), FOV=12.5; f-stop=2; acquisition time=1 s.
as §2, with “shoulder. Growth of the tumors was measured in perpendicular directions every 2 days using a caliper (body weights were monitored on the same schedule), and the volumes of the tumors were calculated as 0.5×L×W^2 (L=longest axis and W=axis perpendicular to L in millimeters).” for “shoulder.”, “ICG (830 nm);” for “830 nm;”
as §3, with “skin, and” for “skin,”, “imaging:—lamp” for “imaging: lamp”, “emission:ICG (830 nm);” for “emission: 830 nm;”
Five-week-old female nu/nu mice were inoculated subcutaneously with KB cells (1.0×10^6/mouse in RPMI medium) on their shoulders. Growth of the tumors was measured in two perpendicular directions every 2 days using a caliper (body weights were monitored on the same schedule), and the volumes of the tumors were calculated as 0.5×L×W^2 (L) longest axis and W) axis perpendicular to L in millimeters). Once tumors reached between 400 and 500 mm3 in volume, animals were treated with folate receptor-targeted NIR dye conjugate (10 nmol) in phosphate buffered saline (100 μL). […]
Animal imaging experiments were performed using a Caliper Ivis Lumina II Imaging Station with Living Image 4.0 software. Settings for imaging Alexa Fluor 647 and DyLight 680 conjugates: lamp level: high; excitation: 605; emission: Cy5.5; epi illumination; binning: (M) 4; FOV=7.5; f-stop=4; acquisition time=1 s. Settings for imaging DyLight 750 and IR800CW conjugates: lamp level: high; excitation: 745; emission: ICG; epi illumination; binning: (M) 4, FOV=12.5; f-stop=4; acquisition time=1 s.
Seven-week-old female nu/nu mice were inoculated subcutaneously with KB cells (1.0×10^6/mouse in folate free RPM11640 medium) on the shoulder. Growth of the tumors was measured in perpendicular directions every 2 days using a caliper (body weights were monitored on the same schedule), and the volumes of the tumors were calculated as 0.5×L×W^2 (L=longest axis and W=axis perpendicular to L in millimeters). Once tumors reached between 400 and 500 mm3 in volume, animals (5 mice/group) were intravenously injected with 10 nmol of OTL-0038 or OTL-0039 in phosphate buffered saline (100 μL). After 2.5 hours, animals were euthanized by CO2 asphyxiation. Whole body imaging (intact tumor) experiments were then performed using a Caliper IVIS Lumina II Imaging Station with Living Image 4.0 software (PerkinElmer Inc, MA). […]

[4] = Chemical and optical properties of NIR dyes (Table 1); type: physicochemical

T1 sequence (P15328 25-234): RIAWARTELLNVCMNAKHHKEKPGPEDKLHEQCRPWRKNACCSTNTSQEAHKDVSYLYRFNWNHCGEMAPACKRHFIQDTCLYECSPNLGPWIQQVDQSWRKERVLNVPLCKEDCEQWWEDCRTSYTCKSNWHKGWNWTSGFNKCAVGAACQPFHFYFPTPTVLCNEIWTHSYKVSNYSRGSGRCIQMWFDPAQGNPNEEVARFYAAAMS

Molecule	Kd [1] [nM]	Relative binding affinities [1]	whole body imaging: accumulation [3]	other results
CC1(C)C(=CC=C2CCCC(C=CC3=[N+](CCCCS(=O)(=O)[O-])c4ccc(S(=O)(=O)O)cc4C3(C)C)=C2Oc2ccc(C[C@@H](NC(=O)c3ccc(NCc4cnc5nc(N)[nH]c(=O)c5n4)cc3)C(=O)O)cc2)N(CCCCS(=O)(=O)O)c2ccc(S(=O)(=O)O)cc21 [OTL-0039, PTE-D-Tyr-S0456]	–	0.09	–	affinity and specificity for folate receptor (words) [1]: lower affinity for folate receptor when compared to folic acid and OTL-0038; toxicity (conclusion) ([2]; 1 μmol (1000× clinical dose)): not toxic to animals; skin colour immediately after the injection ([2]; 1 μmol tail vein): became green; activity and behaviour ([2]; 1 μmol tail vein, day 0 to 7): behaved normally throughout the study; body weights over the course of the study ([2]; 1 μmol tail vein, day 0 to 7): remained stable; lesions in tissues (IHC data) ([2]; 1 μmol tail vein, day 7): no lesions identified in any tissues
Pteroyl-Cys-S0456 [OTL-0054]	–	–	accumulated predominantly in the folate receptor-positive tumors	–
FA-EDA-IR800 [OTL-0002]	19.3	0.430	accumulated predominantly in the folate receptor positive tumors	tumor fluorescence intensity, direct comparison [3]: brighter (higher fluorescence intensity); also recorded: highest tumor-accumulated fluorescence
FA-EDA-ZW800 [OTL-0003]	23.3	0.356	accumulated predominantly in the folate receptor positive tumors	tumor fluorescence intensity, direct comparison [3]: highest tumor-accumulated fluorescence
Pteroyl-Lys-S0456 [OTL-0053]	–	–	–	tumor fluorescence ([3]; excited at 605-675 nm, emitted at ICG (830 nm)): bright tumor fluorescence; tumor fluorescence ([3]; excited at 710-745 nm, emitted at ICG): only a moderate brightness; Stoke's shift ([3]; in vivo imaging): longer Stoke's shift
CC1(C)C(=CC=C2CCCC(C=CC3=[N+](CCC[N+](C)(C)C)c4ccc(S(=O)(=O)O)cc4C3(C)C)=C2Oc2ccc(CCC(=O)O)cc2)N(CCC[N+](C)(C)C)c2ccc(S(=O)(=O)O)cc21 [ZW80o]	–	–	–	E [4]: 249000 M⁻¹ cm⁻¹; Q (%) [4]: 15.1%; Stokes Shift (nm) [4]: 16 nm; λem (nm) [4]: 772 nm; λex (nm) [4]: 788 nm
FA-EDA-LS288 [OTL-0001]	30.7	0.270	accumulated predominantly in the folate receptor positive tumors	–
CC1(C)C(/C=C/C=C/C=C/C=C2\N(CCCCS(=O)(=O)O)c3ccc4ccccc4c3C2(C)C)=[N+](CCCCS(=O)(=O)[O-])c2ccc3ccccc3c21 [ICG, indocyanine green]	–	–	–	E [4]: 121000 M⁻¹ cm⁻¹; Q (%) [4]: 9.3%; Stokes Shift (nm) [4]: 15 nm; λem (nm) [4]: 807 nm; λex (nm) [4]: 822 nm
Pte-N(Me)-Tyr-S0456 [OTL-0044]	–	–	accumulated predominantly in the folate receptor-positive tumors; also recorded: mainly accumulated in the tumors	affinity and specificity for folate receptor (words) [1]: All the compounds have an affinity for folate receptor except OTL-0044 and OTL-0045
CC1(C)C(/C=C/C2=C(Oc3ccc(S(=O)(=O)O)cc3)C(=C/C=C3/N(CCCCS(=O)(=O)O)c4ccc(S(=O)(=O)[O-])cc4C3(C)C)/CCC2)=[N+](CCCCCC(=O)O)c2ccc(S(=O)(=O)O)cc21 [IR800CW]	–	–	–	E [4]: 237000 M⁻¹ cm⁻¹; Q (%) [4]: 14.2%; Stokes Shift (nm) [4]: 14 nm; λem (nm) [4]: 786 nm; λex (nm) [4]: 800 nm
Pte-NHNH-Tyr-(OAc)-S0456 [OTL-0045]	–	–	–	affinity and specificity for folate receptor (words) [1]: All the compounds have an affinity for folate receptor except OTL-0044 and OTL-0045

Second part, led by results:

Kd [1] [nM]	Relative binding affinities [1]	Molecule	whole body imaging: accumulation [3]	other results
14.8	0.177	Pte-Tyr-(OBn)-S0456 [OTL-0043]	–	–
27.6	0.290	Pte-Tyr-13C-S0456 [OTL-0040]	–	–
13.8	0.580	Pte-homo-Tyr-S0456 [OTL-0046]	accumulated predominantly in the folate receptor-positive tumors; also recorded: mainly accumulated in the tumors	–
30.6	0.271	FA-EDA-Kodak2 [OTL-0004]	did not accumulated in the tumors	tumor fluorescence intensity, direct comparison [3]: very low specificity for the tumor and low fluorescence
30.2	0.265	Pte-Tyramine-S0456 [OTL-0049]	–	–
12.8	0.625	Pte-p-homo-Tyr-S0456 [OTL-0047]	accumulated predominantly in the folate receptor-positive tumors; also recorded: mainly accumulated in the tumors	–
95.2	0.078	Pteroyl DAP-S0456 [OTL-0056]	–	–
61.7	0.130	Pte-Tyr-2H(Deuterated)-S0456 [OTL-0042]	–	–
